Experimental data: patent US10590113B2, “6-hydroxy-4-oxo-1,4-dihydropyrimidine-5-carboxamides as APJ agonists” (priority 2016, dated 2020)

target: T1, human APJ receptor (Homo sapiens, UniProt P35414); assay: Intracellular cAMP Accumulation Assay (APJ hcAMP, HTRF); format: cell-based; conditions: not given
T1 construct: expressed in transfected cells; host or cells: HEK293
T1 sequence (P35414 1-380): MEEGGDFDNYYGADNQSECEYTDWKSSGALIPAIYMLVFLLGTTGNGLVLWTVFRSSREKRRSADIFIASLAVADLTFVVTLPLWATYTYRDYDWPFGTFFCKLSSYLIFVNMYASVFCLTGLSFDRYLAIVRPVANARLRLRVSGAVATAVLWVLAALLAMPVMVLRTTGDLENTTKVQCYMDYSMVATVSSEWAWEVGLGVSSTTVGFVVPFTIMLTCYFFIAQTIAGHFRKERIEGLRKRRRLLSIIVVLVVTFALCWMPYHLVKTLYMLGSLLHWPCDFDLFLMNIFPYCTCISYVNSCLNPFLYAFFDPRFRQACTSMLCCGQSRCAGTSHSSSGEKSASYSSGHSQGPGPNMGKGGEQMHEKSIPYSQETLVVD
Summary of the method: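 Stably transfected HEK293 cells (5,000/well) incubated 30 min at room temperature with serially diluted compound, […] and 2 μM forskolin. cAMP measured by HTRF after 60 min with detection reagents, quantified against a cAMP standard curve; EC50 from variable-slope sigmoidal fit of inhibition of forskolin-stimulated cAMP.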

EC50	Compound
0.01 to 10 nM	CCCCc1nc(=O)c(C(=O)N2CCC(c3cccnc3)C2)c(O)n1-c1c(OC)cccc1OC (single isomer, unassigned) [Example 75, 2-butyl-1-(2,6-dimethoxyphenyl)-6-hydroxy-5-[3-(pyridin-3-yl)pyrrolidine-1-carbonyl]-1,4-dihydropyrimidin-4-one]
0.01 to 10 nM	[2H]C([2H])([2H])Oc1cccc(OC([2H])([2H])[2H])c1-n1c(COCC)nc(=O)c(C(=O)N2CC[C@@H](c3ccccc3)C2)c1O [Example 109, 1-[2,6-bis(^2H3)methoxyphenyl]-2-(ethoxymethyl)-6-hydroxy-5-[(3S)-3-phenylpyrrolidine-1-carbonyl]-1,4-dihydropyrimidin-4-one]

Compound	EC50
CCCCc1nc(=O)c(C(=O)N2CC[C@H](c3ccccc3)C2)c(O)n1-c1c(CC)cccc1CC [Example 90, 2-butyl-3-(2,6-diethylphenyl)-6-hydroxy-5-[(3R)-3-phenylpyrrolidine-1-carbonyl]-3,4-dihydropyrimidin-4-one]	0.01 to 10 nM

same assay, conditions: human APJ, cAMP accumulation; potency range class; read-out: hAPJ cAMP EC50 Potency range

EC50	Compound
0.01 to 10 nM	CCc1cccc(CC)c1-n1c(-c2ccn(C)n2)nc(=O)c(C(=O)N2CC[C@@H](c3ccccc3)C2)c1O [Example 285, 1-(2,6-diethylphenyl)-6-hydroxy-2-(1-methyl-1H-pyrazol-3-yl)-5-[(3S)-3-phenylpyrrolidine-1-carbonyl]-1,4-dihydropyrimidin-4-one]
10 to 100 nM	CCc1cccc(CC)c1-n1c(-c2ccn(CC(C)C)n2)nc(=O)c(C(=O)N2CCC(c3ncc(F)cc3F)C2)c1O (single isomer, unassigned) [Example 320, 1-(2,6-diethylphenyl)-5-[3-(3,5-difluoropyridin-2-yl)pyrrolidine-1-carbonyl]-6-hydroxy-2-[1-(2-methylpropyl)-1H-pyrazol-3-yl]-1,4-dihydropyrimidin-4-one]
0.01 to 10 nM	CCc1cccc(CC)c1-n1c(-c2csc(C)n2)nc(=O)c(C(=O)N2CCC(c3ncccc3F)C2)c1O (single isomer, unassigned) [Example 302, 1-(2,6-diethylphenyl)-5-[3-(3-fluoropyridin-2-yl)pyrrolidine-1-carbonyl]-6-hydroxy-2-(2-methyl-1,3-thiazol-4-yl)-1,4-dihydropyrimidin-4-one]
10 to 100 nM	COc1cccc(OC)c1-n1c(Cc2ccc(F)cc2)nc(=O)c(C(=O)N2CCC(c3ccccc3F)C2)c1O (single isomer, unassigned) [Example 231, 1-(2,6-dimethoxyphenyl)-2-[(4-fluorophenyl)methyl]-5-[3-(2-fluorophenyl)pyrrolidine-1-carbonyl]-6-hydroxy-1,4-dihydropyrimidin-4-one]
0.01 to 10 nM	CCc1cccc(CC)c1-n1c(-c2csc(C)n2)nc(=O)c(C(=O)N2CCC(c3ncc(F)cc3F)C2)c1O (single isomer, unassigned) [Example 298, 1-(2,6-diethylphenyl)-5-[3-(3,5-difluoropyridin-2-yl)pyrrolidine-1-carbonyl]-6-hydroxy-2-(2-methyl-1,3-thiazol-4-yl)-1,4-dihydropyrimidin-4-one]

same assay, conditions: human APJ, intracellular cAMP accumulation; read-out: hAPJ cAMP EC50 Potency range

EC50	Compound
0.01 to 10 nM	CCCCc1nc(=O)c(C(=O)N2CC[C@H](OCc3ccccn3)C2)c(O)n1-c1c(OC)cccc1OC [Example 64, 2-butyl-1-(2,6-dimethoxyphenyl)-6-hydroxy-5-[(3S)-3-[(pyridin-2-yl)methoxy]pyrrolidine-1-carbonyl]-1,4-dihydropyrimidin-4-one]
0.01 to 10 nM	CC[C@@H](c1cc(F)cc(F)c1)n1c(-c2ccn(C)n2)nc(=O)c(C(=O)N2CCC(c3ncccc3F)C2)c1O (single isomer, unassigned) [Example 189]
10 to 100 nM	COc1cccc(OC)c1-n1c(COC(C)C)nc(=O)c(C(=O)N2CC(c3ccccc3)C2)c1O [Example 110, 1-(2,6-dimethoxyphenyl)-6-hydroxy-5-(3-phenylazetidine-1-carbonyl)-2-[(propan-2-yloxy)methyl]-1,4-dihydropyrimidin-4-one]
0.01 to 10 nM	CC[C@@H](c1cc(F)cc(F)c1)n1c(-c2ccn(CC)n2)nc(=O)c(C(=O)N2CCC(c3cc(F)ccn3)C2)c1O (single isomer, unassigned) [Example 202]
0.01 to 10 nM	C=CCCc1nc(=O)c(C(=O)N2CC[C@H](c3ccccc3)C2)c(O)n1-c1c(C)cccc1OC [Example 35, (R)-2-(but-3-en-1-yl)-6-hydroxy-3-(2-methoxy-6-methylphenyl)-5-(3-phenylpyrrolidine-1-carbonyl)pyrimidin-4(3H)-one]
0.01 to 10 nM	COc1cccc(OC)c1-n1c(COC2CC2)nc(=O)c(C(=O)N2CCC(c3ccc(F)cc3)C2)c1O (single isomer, unassigned) [Example 103, 2-(cyclopropoxymethyl)-1-(2,6-dimethoxyphenyl)-5-[3-(4-fluorophenyl)pyrrolidine-1-carbonyl]-6-hydroxy-1,4-dihydropyrimidin-4-one]
0.01 to 10 nM	COc1cccc(OC)c1-n1c(COC(C)C)nc(=O)c(C(=O)N2CCC(c3ccccc3Cl)C2)c1O (single isomer, unassigned) [Example 92, 5-[3-(2-chlorophenyl)pyrrolidine-1-carbonyl]-1-(2,6-dimethoxyphenyl)-6-hydroxy-2-[(propan-2-yloxy)methyl]-1,4-dihydropyrimidin-4-one]
0.01 to 10 nM	CCCCc1nc(=O)c(C(=O)N2CC[C@@H](c3ccccc3)C2)c(O)n1[C@@H](CC)c1ccccc1 [Example 121, 2-butyl-6-hydroxy-3-[(1S)-1-phenylpropyl]-5-[(3S)-3-phenylpyrrolidine-1-carbonyl]-3,4-dihydropyrimidin-4-one]
10 to 100 nM	CCCCc1nc(=O)c(C(=O)N2CC[C@H](c3ccccc3)C2)c(O)n1[C@@H](C)c1ccccc1 [Example 141, 2-butyl-6-hydroxy-3-[(1S)-1-phenylethyl]-5-[(3R)-3-phenylpyrrolidine-1-carbonyl]-3,4-dihydropyrimidin-4-one]
0.01 to 10 nM	CC[C@@H](c1cc(F)cc(F)c1)n1c(-c2ccn(CC)n2)nc(=O)c(C(=O)N2CCC(c3ncc(F)cc3F)C2)c1O (single isomer, unassigned) [Example 215]
0.01 to 10 nM	CCCCc1nc(=O)c(C(=O)N2CCC(c3ccncc3)CC2)c(O)n1-c1c(OC)cccc1OC [Example 71, 2-butyl-1-(2,6-dimethoxyphenyl)-6-hydroxy-5-[4-(pyridin-4-yl)piperidine-1-carbonyl]-1,4-dihydropyrimidin-4-one]
0.01 to 10 nM	COc1cccc(OC)c1-n1c(COC(C)C)nc(=O)c(C(=O)N2CCC(c3ccccc3C#N)C2)c1O (single isomer, unassigned) [Example 165, 2-{1-[1-(2,6-dimethoxyphenyl)-6-hydroxy-4-oxo-2-[(propan-2-yloxy)methyl]-1,4-dihydropyrimidine-5-carbonyl]pyrrolidin-3-yl}benzonitrile]
0.01 to 10 nM	COc1cccc(OC)c1-n1c(COC2CC2)nc(=O)c(C(=O)N2CCC(c3cccc(F)c3)C2)c1O (stereo not shown) [Example 15, 2-(cyclopropoxymethyl)-1-(2,6-dimethoxyphenyl)-5-(3-(3-fluorophenyl)pyrrolidine-1-carbonyl)-6-hydroxypyrimidin-4(1H)-one]
10 to 100 nM	CCCCc1nc(=O)c(C(=O)N2CC[C@H](c3ccccc3)C2)c(O)n1[C@H](COC)c1ccccc1 [Example 152, 2-butyl-6-hydroxy-3-[(1S)-2-methoxy-1-phenylethyl]-5-[(3R)-3-phenylpyrrolidine-1-carbonyl]-3,4-dihydropyrimidin-4-one]
0.01 to 10 nM	CC[C@@H](c1cc(F)cc(F)c1)n1c(-c2ccn(C)n2)nc(=O)c(C(=O)N2CCC(c3ccc(Cl)cn3)C2)c1O (single isomer, unassigned) [Example 190]
0.01 to 10 nM	COc1cccc(OC)c1-n1c(COC(C)C)nc(=O)c(C(=O)N2CCC(c3ccccc3C#N)C2)c1O (single isomer, unassigned) [Example 167]

Compound	EC50
COc1cccc(OC)c1-n1c(COC(C)(C)C)nc(=O)c(C(=O)N2CCC(c3ccc(F)cc3)C2)c1O (stereo not shown) [Example 44, 2-[(tert-butoxy)methyl]-1-(2,6-dimethoxyphenyl)-5-[3-(4-fluorophenyl)pyrrolidine-1-carbonyl]-6-hydroxy-1,4-dihydropyrimidin-4-one]	0.01 to 10 nM

same assay, conditions: read-out: hAPJ cAMP EC50 Potency range

EC50	Compound
0.01 to 10 nM	CCCCc1nc(=O)c(C(=O)N2CCC(Oc3ccccc3Cl)CC2)c(O)n1-c1c(OC)cccc1OC [Example 382, 2-butyl-5-(4-(2-chlorophenoxy)piperidine-1-carbonyl)-1-(2,6-dimethoxyphenyl)-6-hydroxypyrimidin-4(1H)-one]

same assay, conditions: read-out: hAPJ cAMP EC50 Potency range; human APJ, intracellular cAMP accumulation

EC50	Compound
0.01 to 10 nM	CCCCc1nc(=O)c(C(=O)N2CCC(c3ccc(Cl)cc3)C2)c(O)n1-c1c(OC)cccc1OC (single isomer, unassigned) [Example 45, 2-butyl-5-[3-(4-chlorophenyl)pyrrolidine-1-carbonyl]-1-(2,6-dimethoxyphenyl)-6-hydroxy-1,4-dihydropyrimidin-4-one]
0.01 to 10 nM	CCCCc1nc(=O)c(C(=O)N2CCC(c3ccccn3)C2)c(O)n1-c1c(OC)cccc1OC (single isomer, unassigned) [Example 70, 2-butyl-1-(2,6-dimethoxyphenyl)-6-hydroxy-5-[3-(pyridin-2-yl)pyrrolidine-1-carbonyl]-1,4-dihydropyrimidin-4-one]
